target: T1, FAP (Homo sapiens (Human), UniProt Q12884); assay: FAP protease inhibition assay (FAM-labeled substrate peptide, microfluidic electrophoresis); assay type: biochemical; conditions: enzyme 0.5 nM, substrate peptide 1 uM, 15 minutes pre-incubation, three hours for human FAP
Experimental: Protease reactions were assembled in 384 well plates (Greiner) in a total volume of 20 uL as described below.
Recombinant proteins were pre-diluted in assay buffer comprising of 100 mM HEPES, pH 7.5, 0.1% BSA, 0.01% Triton X-100, 1 mM DTT, and dispensed into 384 well plate (10 uL per well). Test compounds were serially pre-diluted in DMSO and added to the assay wells by acoustic dispensing (Labcyte Echo 550). Control samples (0%-inhibition in the absence of inhibitor, DMSO only) and 100%-inhibition (in the absence of enzyme) were assembled in replicates of four and used to calculate the %-inhibition in the presence of compounds. Concentration of DMSO was equalized to 1% in all samples.
Compounds were pre-incubated with enzymes for 15 minutes. Human FAP was obtained from Enzo, catalogue number BML-SE409-0010. […] Final concentration of enzymes were 0.5 nM. Final concentration of substrate peptides was 1 uM.
The reactions were allowed to proceed at room temperature. Incubation time was three hours for human FAP, 0.5 hours for mouse FAP.
Terminated plates were analyzed using a microfluidic electrophoresis instrument (Caliper LabChip® 3000, Caliper Life Sciences/Perkin Elmer). A change in relative intensity of the peptide substrate and cleaved product was the parameter measured. Activity in each test sample was determined as the product to sum ratio (PSR):P/(S+P), where P is the peak height of the product, and S is the peak height of the substrate. Percent inhibition (Pinh) was determined using the following equation: Pinh=(PSR0% inh−PSRcompound)/(PSR0% inh−PSR100% inh)*100, in which: PSRcompound is the product/sum ratio in the presence of compound, PSR0% inh is the product/sum ratio in the absence of compound and the PSR100% inh is the product/sum ratio in the absence of the enzyme.

T1 sequence (Q12884 whole entry): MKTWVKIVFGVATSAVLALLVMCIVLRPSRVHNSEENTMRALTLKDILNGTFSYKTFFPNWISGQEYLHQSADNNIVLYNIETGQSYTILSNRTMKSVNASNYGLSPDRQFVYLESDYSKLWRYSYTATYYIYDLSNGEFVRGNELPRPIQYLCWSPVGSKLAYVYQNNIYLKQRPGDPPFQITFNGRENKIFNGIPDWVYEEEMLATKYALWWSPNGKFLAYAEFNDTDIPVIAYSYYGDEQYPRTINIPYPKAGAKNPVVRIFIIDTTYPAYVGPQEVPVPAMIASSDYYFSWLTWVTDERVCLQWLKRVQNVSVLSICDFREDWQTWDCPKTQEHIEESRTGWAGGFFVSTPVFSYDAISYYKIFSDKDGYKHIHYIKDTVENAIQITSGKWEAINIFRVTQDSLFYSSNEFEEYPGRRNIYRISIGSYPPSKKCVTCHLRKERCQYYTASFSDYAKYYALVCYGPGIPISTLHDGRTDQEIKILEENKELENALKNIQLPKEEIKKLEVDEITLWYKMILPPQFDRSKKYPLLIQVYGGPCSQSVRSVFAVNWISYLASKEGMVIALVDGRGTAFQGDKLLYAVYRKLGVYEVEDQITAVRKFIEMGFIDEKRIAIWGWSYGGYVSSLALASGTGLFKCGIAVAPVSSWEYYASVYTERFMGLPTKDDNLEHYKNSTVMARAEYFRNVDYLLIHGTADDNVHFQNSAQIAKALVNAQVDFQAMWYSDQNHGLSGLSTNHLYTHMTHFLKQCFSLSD

IC50 [pM] | Molecule
100 to 500 | CC(C)Cc1ccc(CC(=O)NCCCC[C@H](NC(=O)[C@H](CCCCNC(=S)Nc2ccc(CCOc3cc(CN4CCOCCOCCN(Cc5cccc(C(=O)O)n5)CCOCCOCC4)nc(C(=O)O)c3)cc2)NC(=O)CCOCCOCCOCCNC(=O)COc2ccc3c(C(=O)NCC(=O)N4CCC[C@H]4B(O)O)ccnc3c2)C(=O)O)cc1 [RTX-1399R, 4-(4-(3-((S)-1-((4-((2-((R)-2-boronopyrrolidin-1-yl)-2-oxoethyl)carbamoyl)quinolin-7-yl)oxy)-17-(((S)-1-carboxy-5-(2-(4-isobutylphenyl)acetamido)pentyl)carbamoyl)-2,15-dioxo-6,9,12-trioxa-3,16-diazahenicosan-21-yl)thioureido)phenethoxy)-6-((16-((6-carboxypyridin-2-yl)methyl)-1,4,10,13-tetraoxa-7,16-diazacyclooctadecan-7-yl)methyl)picolinic acid]
100 to 500 | CCCC(=O)NCCCC[C@H](NC(=O)[C@H](CCCCNC(=O)CN1CCN(CC(=O)O)CCN(CC(=O)O)CC1)NC(=O)CCOCCOCCOCCNC(=O)COc1ccc2c(C(=O)NCC(=O)N3CCC[C@H]3C#N)ccnc2c1)C(=O)O [RTX-1340S]
< 100 | CCCCCC(=O)NCCCC[C@H](NC(=O)[C@H](CCCCNC(=O)CN1CCN(CC(=O)O)CCN(CC(=O)O)CC1)NC(=O)CCOCCOCCOCCNC(=O)COc1ccc2c(C(=O)NCC(=O)N3CCC[C@H]3C#N)ccnc2c1)C(=O)O [RTX-1363S, 2,2′-(7-((S)-17-(((S)-1-carboxy-5-hexanamidopentyl)carbamoyl)-1-((4-((2-((S)-2-cyanopyrrolidin-1-yl)-2-oxoethyl)carbamoyl)quinolin-7-yl)oxy)-2,15,23-trioxo-6,9,12-trioxa-3,16,22-triazatetracosan-24-yl)-1,4,7-triazonane-1,4-diyl)diacetic Acid]
< 100 | CCCCCC(=O)NCCCC[C@H](NC(=O)[C@H](CCCCNC(=O)CN1CCN(CC(=O)O)CCN(CC(=O)O)CCN(CC(=O)O)CC1)NC(=O)CCOCCOCCOCCNC(=O)COc1ccc2c(C(=O)NCC(=O)N3CCC[C@H]3B(O)O)ccnc2c1)C(=O)O [RTX-1361R]
100 to 500 | CCCC(=O)NCCCC[C@H](NC(=O)[C@H](CCCCNC(=S)Nc1ccc(CC2CN(CC(=O)O)CCN(CC(=O)O)CCN2CC(=O)O)cc1)NC(=O)CCOCCOCCOCCNC(=O)COc1ccc2c(C(=O)NCC(=O)N3CCC[C@H]3C#N)ccnc2c1)C(=O)O (stereo partly shown) [RTX-1317S]
100 to 500 | CCCCCCCC(=O)NCCCC[C@H](NC(=O)[C@H](CCCCNC(=O)CN1CCN(CC(=O)O)CCN(CC(=O)O)CCN(CC(=O)O)CC1)NC(=O)CCOCCOCCOCCNC(=O)COc1ccc2c(C(=O)NCC(=O)N3CCC[C@H]3B(O)O)ccnc2c1)C(=O)O [RTX-1355R]
< 100 | CCCCCCCC(=O)NCCCC[C@H](NC(=O)[C@H](CCCCNC(=O)CN1CCN(CC(=O)O)CCN(CC(=O)O)CCN(CC(=O)O)CC1)NC(=O)CCOCCOCCOCCNC(=O)COc1ccc2c(C(=O)NCC(=O)N3CCC[C@H]3C#N)ccnc2c1)C(=O)O [RTX-1350S]
< 100 | CC(C)Cc1ccc(CC(=O)NCCCC[C@H](NC(=O)[C@H](CCCCNC(=O)CN2CCN(CC(=O)O)CCN(CC(=O)O)CCN(CC(=O)O)CC2)NC(=O)CCOCCOCCOCCNC(=O)COc2ccc3c(C(=O)NCC(=O)N4CCC[C@H]4C#N)ccnc3c2)C(=O)O)cc1 [RTX-1354S]
< 100 | CC(C)Cc1ccc(CC(=O)NCCCC[C@H](NC(=O)[C@H](CCCCNC(=O)CN2CCN(CC(=O)O)CCN(CC(=O)O)CCN(CC(=O)O)CC2)NC(=O)CCOCCOCCOCCNC(=O)COc2ccc3c(C(=O)NCC(=O)N4CCC[C@H]4B(O)O)ccnc3c2)C(=O)O)cc1 [RTX-1359R, 2-[2-(3-{2-[2-(2-{2-[4-({2-[(R)-2-(1,2-dihydroxaboro)-1-pyrrolidinyl]-2-oxoethylamino}-carbonyl)-7-quinolyloxy]acetylamino}ethoxy)ethoxy]ethoxy}propionylamino)-6-{2-[4,7,10-tris(carb-oxymethyl)-1,4,7,10-tetraaza-1-cyclododecyl]acetylamino}hexanoylamino]-6-[2-(p-isobutylphenyl)-acetylamino]hexanoic Acid]
< 100 | CC(=O)NCCCC[C@H](NC(=O)[C@H](CCCCNC(=O)c1ccc(F)c(C#N)c1)NC(=O)CCOCCOCCOCCNC(=O)COc1ccc2c(C(=O)NCC(=O)N3CCC[C@H]3C#N)ccnc2c1)C(=O)O [RTX-1324S, (S)-2-[(S)-2-(3-{2-[2-(2-{2-[4-({2-[(S)-2-Cyano-1-pyrrolidinyl]-2-oxoethylamino}carbonyl)-7-quinolyloxy]acetylamino}ethoxy)ethoxy]ethoxy}propionylamino)-6-(3-cyano-4-fluorobenzoylamino)hexanoylamino]-6-acetylaminohexanoic Acid]
100 to 500 | CC(=O)NCCCC[C@H](NC(=O)[C@H](CCCCNC(=S)Nc1ccc(CC2CN(CC(=O)O)CCN(CC(=O)O)CCN2CC(=O)O)cc1)NC(=O)CCOCCOCCOCCNC(=O)COc1ccc2c(C(=O)NCC(=O)N3CCC[C@H]3B(O)O)ccnc2c1)C(=O)O (stereo partly shown) [RTX-1319R]
< 100 | CCCCCC(=O)NCCCC[C@H](NC(=O)[C@H](CCCCNC(=O)CN1CCN(CC(=O)O)CCN(CC(=O)O)CCN(CC(=O)O)CC1)NC(=O)CCOCCOCCOCCNC(=O)COc1ccc2c(C(=O)NCC(=O)N3CCC[C@H]3C#N)ccnc2c1)C(=O)O [RTX-1360S]
< 100 | CCCCCC(=O)NCCCC[C@H](NC(=O)[C@H](CCCCNC(=S)Nc1ccc(CC2CN(CC(=O)O)CCN(CC(=O)O)CCN2CC(=O)O)cc1)NC(=O)CCOCCOCCOCCNC(=O)COc1ccc2c(C(=O)NCC(=O)N3CCC[C@H]3C#N)ccnc2c1)C(=O)O (stereo partly shown) [RTX-1318S]
500 to 5000 | CC(=O)NCCCC[C@H](NC(=O)[C@H](CCCCNC(=O)c1ccc(F)c(C(F)(F)F)c1)NC(=O)CCOCCOCCOCCNC(=O)COc1ccc2c(C(=O)NCC(=O)N3CCC[C@H]3C#N)ccnc2c1)C(=O)O [RTX-1325S]
100 to 500 | CC(=O)NCCCC[C@H](NC(=O)[C@H](CCCCNC(=O)CN1CCN(CC(=O)O)CCN(CC(=O)O)CCN(CC(=O)O)CC1)NC(=O)CCOCCOCCOCCNC(=O)COc1ccc2c(C(=O)NCC(=O)N3CCC[C@H]3C#N)ccnc2c1)C(=O)O [RTX-1353S]
100 to 500 | CC(=O)NCCCC[C@H](NC(=O)[C@H](CCCCNC(=O)CN1CCN(CC(=O)O)CCN(CC(=O)O)CC1)NC(=O)CCOCCOCCOCCNC(=O)COc1ccc2c(C(=O)NCC(=O)N3CCC[C@H]3C#N)ccnc2c1)C(=O)O [RTX-1339S]

Molecule | IC50 [pM]
COc1ccc2c(C(=O)NCC(=O)N3CCC[C@H]3C#N)ccnc2c1 [RTX-1326S, 7-Methoxy-quinoline-4-carboxylic Acid [2-((S)-2-cyano-pyrrolidin-1-yl)-2-oxo-ethyl]-amide] | 500 to 5000
2,2′,2″-(10-(8-(1-((4-((2-((R)-2-boronopyrrolidin-1-yl)-2-oxoethyl)carbamoyl)quinolin-7-yl)oxy)-2-oxo-6,9,12-trioxa-3-azapentadecanamido)-39-carboxy-48-(4-isobutylphenyl)-2,9,37,45-tetraoxo-13,16,19,22,25,28,31,34-octaoxa-3,10,38,44-tetraazaoctatetracontyl)-1,4,7,10-tetraazacyclo-dodecane-1,4,7-triyl)triacetic acid [RTX-1357R] | < 100
CC(C)Cc1ccc(CCCC(=O)NCCCC[C@H](NC(=O)[C@H](CCCCNC(=O)CN2CCN(CC(=O)O)CCN(CC(=O)O)CCN(CC(=O)O)CC2)NC(=O)CCOCCOCCOCCNC(=O)COc2ccc3c(C(=O)NCC(=O)N4CCC[C@H]4C#N)ccnc3c2)C(=O)O)cc1 [RTX-1352S] | < 100
CCCCCC(=O)NCCCC[C@H](NC(=O)[C@H](CCCCNC(=O)CN1CCN2CCN(CC1)CC(=O)[O][Cu][O]C(=O)C2)NC(=O)CCOCCOCCOCCNC(=O)COc1ccc2c(C(=O)NCC(=O)N3CCC[C@H]3C#N)ccnc2c1)C(=O)O [RTX-1363S-Cu] | < 100
CC(C)Cc1ccc(CCCC(=O)NCCCC[C@H](NC(=O)[C@H](CCCCNC(=O)CN2CCN(CC(=O)O)CCN(CC(=O)O)CCN(CC(=O)O)CC2)NC(=O)CCOCCOCCOCCNC(=O)COc2ccc3c(C(=O)NCC(=O)N4CCC[C@H]4B(O)O)ccnc3c2)C(=O)O)cc1 [RTX-1356R] | 100 to 500

target: T1, FAP; assay: surface plasmon resonance assay; assay type: binding; conditions: read-out: affinity

Molecule | Kd [pM]
CN(CCCN1CCN(C(=O)CN2CCN(CC(=O)O)CCN(CC(=O)O)CCN(CC(=O)O)CC2)CC1)c1ccc2nccc(C(=O)NCC(=O)N3CC(F)(F)C[C@H]3C#N)c2c1 [FAP-46] | 255

Reference: patent US20260034252A1, “FIBROBLAST ACTIVATION PROTEIN-TARGETED COMPOSITIONS AND METHODS OF USE THEREOF” (Ratio Therapeutics, Inc., priority 2022, published 2026)
